In PMC4441817 (Bioorganic & medicinal chemistry letters, 2012):

Columns and labels:
GGTase II = conditions: cited from earlier work
[1] = cited from earlier work
[2] = test system: human myeloma RPMI-8226 cell line; test: cells; conditions: RPMI-8226, 48 h, read-out: MTT IC50
[3] = test system: protein farnesylation or geranylgeranylation; test: Cellular assays of protein farnesylation or geranylgeranylation; assay type: cell-based; conditions: data not shown
[4] = test system: human myeloma RPMI-8226 cell line; conditions: RPMI-8226 cells, 48 hr incubation
[5] = target: T1, geranylgeranyl transferase II (GGTase II) (Homo sapiens, UniProt P53611+Q92696); assay type: biochemical; conditions: recombinant enzyme
T1 sequence (Q92696 1-567): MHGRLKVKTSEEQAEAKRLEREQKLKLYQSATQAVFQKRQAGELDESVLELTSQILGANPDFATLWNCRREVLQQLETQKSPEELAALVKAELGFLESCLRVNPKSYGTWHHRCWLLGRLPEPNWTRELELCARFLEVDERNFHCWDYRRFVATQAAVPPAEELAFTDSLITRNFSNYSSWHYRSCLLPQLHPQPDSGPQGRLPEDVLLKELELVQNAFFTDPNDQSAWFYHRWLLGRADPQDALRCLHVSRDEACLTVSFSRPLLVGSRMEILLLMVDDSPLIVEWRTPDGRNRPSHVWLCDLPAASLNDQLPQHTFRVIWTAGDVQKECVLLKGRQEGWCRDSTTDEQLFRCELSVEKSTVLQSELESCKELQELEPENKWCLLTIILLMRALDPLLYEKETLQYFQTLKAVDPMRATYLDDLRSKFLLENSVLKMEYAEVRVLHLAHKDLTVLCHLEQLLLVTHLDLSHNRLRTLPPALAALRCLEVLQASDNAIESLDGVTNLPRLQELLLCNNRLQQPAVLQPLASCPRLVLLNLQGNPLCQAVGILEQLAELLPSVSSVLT
T1 sequence (P53611 1-331): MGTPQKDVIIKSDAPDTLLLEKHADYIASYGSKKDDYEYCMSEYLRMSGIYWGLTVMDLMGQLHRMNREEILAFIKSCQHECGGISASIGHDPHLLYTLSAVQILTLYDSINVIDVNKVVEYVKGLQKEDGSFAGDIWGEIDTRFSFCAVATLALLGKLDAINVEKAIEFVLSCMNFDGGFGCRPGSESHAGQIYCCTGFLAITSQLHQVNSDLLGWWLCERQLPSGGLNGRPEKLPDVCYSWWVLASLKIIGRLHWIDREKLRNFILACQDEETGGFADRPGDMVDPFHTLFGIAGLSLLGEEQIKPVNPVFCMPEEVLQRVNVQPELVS

IC50 [2] [µM] | activity as a GGTase II inhibitor (in words) [5] | SMILES | further results
> 1000 |  | O=P(O)(O)C(Cc1cn(Cc2ccccc2)nn1)P(=O)(O)O [Compound 11a] | 
> 1000 | no activity | CC(C)=CCCC(C)=CCn1cc(CC(P(=O)([O-])[O-])P(=O)([O-])[O-])nn1.[Na+].[Na+].[Na+].[Na+] [Compound 11c] | 

More lines, now with the values behind:

SMILES | IC50 [2] [µM] | activity as a GGTase II inhibitor (in words) [5] | further results
O=C(O)C(O)(Cc1cnc2ccccn12)P(=O)(O)O (single isomer, unassigned; (+)) [(+)-3-IPEHPC] |  |  | potency relative to 3-PEHPC (GGTase II): more potent than 3-PEHPC; type of inhibition with respect to GGPP (GGTase II): mixed-type inhibitor; type of inhibition with respect to Rab (GGTase II): uncompetitive inhibitor
O=C(O)C(O)(Cc1cccnc1)P(=O)(O)O (stereo not drawn) [Compound 3-PEHPC] |  |  | selectivity for GGTase II (in words) (GGTase II): good selectivity for GGTase II; concentrations required to observe cellular effects [1]: millimolar concentrations are required
O=P([O-])([O-])C(Cc1cn(Cc2ccc3ccccc3c2)nn1)P(=O)([O-])[O-].[Na+].[Na+].[Na+].[Na+] [Compound 11b] | 200 |  | effect on protein farnesylation or geranylgeranylation [3]: does not affect protein farnesylation or geranylgeranylation; cytotoxic potency in the MTT assay (in words) [4]: most potent
CC(C)=CCC/C(C)=C/CCC(C)=CCn1cc(CC(P(=O)([O-])[O-])P(=O)([O-])[O-])nn1.[Na+].[Na+].[Na+].[Na+] [Compound 11d] | 900 | modest activity | 
CC(C)=CCC/C(C)=C/CC/C(C)=C/CCC(C)=CCn1cc(CC(P(=O)([O-])[O-])P(=O)([O-])[O-])nn1.[Na+].[Na+].[Na+].[Na+] [Compound 11e] | 1000 | most active compound | 
